Like-named read-outs stand apart in the source and are kept apart here.
What was measured:
[1] = target: T1, Plasmodium falciparum protein kinase 6 (PK6) (Plasmodium falciparum, UniProt Q8IDW1); experiment: biochemical; conditions: hits below 1 uM; read-out: PK6 IC50
T1 construct: 6-Histidine (N); made in house
T1 sequence (Q8IDW1 1-305): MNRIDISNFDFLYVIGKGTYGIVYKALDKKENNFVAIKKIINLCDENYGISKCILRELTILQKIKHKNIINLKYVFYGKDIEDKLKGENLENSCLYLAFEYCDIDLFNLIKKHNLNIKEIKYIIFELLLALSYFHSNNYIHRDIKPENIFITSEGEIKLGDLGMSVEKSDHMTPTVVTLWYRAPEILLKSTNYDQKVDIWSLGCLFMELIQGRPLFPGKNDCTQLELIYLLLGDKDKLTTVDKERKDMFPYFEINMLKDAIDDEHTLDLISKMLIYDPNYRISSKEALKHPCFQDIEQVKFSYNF

[2] = system: HepG2 cells; conditions: cited from earlier work
[3] = system: P. falciparum 3D7 cells; conditions: cited from earlier work
[4] = system: P. falciparum DD2; set-up: method as in ChEMBL; conditions: ref ChEMBL; cited from earlier work
[5] = system: 3D7 PFLDH; set-up: method as in ChEMBL; conditions: ref ChEMBL; cited from earlier work
[6] = target: T2, Plasmodium falciparum calcium-dependent protein kinase 1 (CDPK1) (Plasmodium falciparum, UniProt P62344); experiment: CDPK1 Kinase-Glo ATP-consumption screen and dose-response; format: biochemical; conditions: hits below 1 uM; read-out: CDPK1 IC50
T2 construct: 6-Histidine (N); made in house
How it was run: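 ATP consumption by recombinant P. falciparum CDPK4 or CDPK1 measured as residual ATP by Kinase-Glo luminescence, with 40 μM Syntide-2 substrate and 90 min incubation stopped with 5 mM EGTA. Single-point screen at 1 μM final, followed by dose-response; no-substrate wells as negative control.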

[7] = target: T3, Plasmodium falciparum calcium-dependent protein kinase 4 (CDPK4) (Plasmodium falciparum, UniProt Q8IBS5); experiment: CDPK4 Kinase-Glo ATP-consumption screen and dose-response; format: biochemical; conditions: hits below 1 uM
T3 construct: 6-Histidine (N); made in house
T3 sequence (Q8IBS5 1-528): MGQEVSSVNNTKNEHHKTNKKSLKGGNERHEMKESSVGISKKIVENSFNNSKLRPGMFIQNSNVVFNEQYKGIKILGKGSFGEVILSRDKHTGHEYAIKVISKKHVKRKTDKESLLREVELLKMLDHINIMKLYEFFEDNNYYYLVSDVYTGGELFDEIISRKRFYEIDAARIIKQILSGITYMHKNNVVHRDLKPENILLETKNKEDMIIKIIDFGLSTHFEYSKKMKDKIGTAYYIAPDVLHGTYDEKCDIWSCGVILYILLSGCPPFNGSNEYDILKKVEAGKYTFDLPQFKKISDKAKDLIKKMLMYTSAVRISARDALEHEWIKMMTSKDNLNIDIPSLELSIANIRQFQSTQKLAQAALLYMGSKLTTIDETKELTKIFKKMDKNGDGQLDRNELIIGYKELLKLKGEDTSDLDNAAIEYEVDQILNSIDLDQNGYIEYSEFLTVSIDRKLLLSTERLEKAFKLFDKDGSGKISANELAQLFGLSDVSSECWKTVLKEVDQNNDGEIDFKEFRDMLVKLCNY
Description: Biochemical assays were performed in white 384-well plates (Nunc). Liquid transfers were done manually with 8-channel pipets. Compounds were initially tested in a single-point screen (final concentration 1 μM). […] The catalytic activity of each kinase was considered proportional to ATP consumed, as determined from measurements of residual [ATP] with the luciferase-based reagent Kinase-Glo (Promega) following incubation. Luminescence (proportional to residual [ATP]) was measured on the plate readers FLx800 (BioTek Instruments, Winooski, VT, USA) and MicroBeta^2 (PerkinElmer, Waltham, MA, USA). Incubation times were chosen to ensure near-complete ATP depletion in the absence of inhibition, thus maximizing the difference in signal between inhibited and uninhibited wells.
40 μM Syntide-2 was used as a substrate; BKI-1 [14] was used as a control inhibitor, while reaction mixtures lacking Syntide-2 were included as an additional negative control. Incubation time was 90 minutes. Reactions were terminated by adding excess EGTA (5 mM), which sequesters Ca^2+ and halts calcium-dependent kinase activity.

[8] = target: PKG (Plasmodium falciparum, UniProt Q8I719); experiment: PKG IC50 (supplementary data file); format: biochemical
Text: Supplement pone.0149996.s003.xls, sheet "combined_1_sorted"

[9] = system: DD2; set-up: method as in downloaded from ChEMBL; conditions: ref downloaded from ChEMBL; cited from earlier work
[10] = system: 3D7 PFLDH; set-up: method as in downloaded from ChEMBL; conditions: ref downloaded from ChEMBL; cited from earlier work
[11] = HEPG2, ref downloaded from ChEMBL
[12] = 3D7, ref downloaded from ChEMBL

PKG, sequence (Q8I719 whole entry): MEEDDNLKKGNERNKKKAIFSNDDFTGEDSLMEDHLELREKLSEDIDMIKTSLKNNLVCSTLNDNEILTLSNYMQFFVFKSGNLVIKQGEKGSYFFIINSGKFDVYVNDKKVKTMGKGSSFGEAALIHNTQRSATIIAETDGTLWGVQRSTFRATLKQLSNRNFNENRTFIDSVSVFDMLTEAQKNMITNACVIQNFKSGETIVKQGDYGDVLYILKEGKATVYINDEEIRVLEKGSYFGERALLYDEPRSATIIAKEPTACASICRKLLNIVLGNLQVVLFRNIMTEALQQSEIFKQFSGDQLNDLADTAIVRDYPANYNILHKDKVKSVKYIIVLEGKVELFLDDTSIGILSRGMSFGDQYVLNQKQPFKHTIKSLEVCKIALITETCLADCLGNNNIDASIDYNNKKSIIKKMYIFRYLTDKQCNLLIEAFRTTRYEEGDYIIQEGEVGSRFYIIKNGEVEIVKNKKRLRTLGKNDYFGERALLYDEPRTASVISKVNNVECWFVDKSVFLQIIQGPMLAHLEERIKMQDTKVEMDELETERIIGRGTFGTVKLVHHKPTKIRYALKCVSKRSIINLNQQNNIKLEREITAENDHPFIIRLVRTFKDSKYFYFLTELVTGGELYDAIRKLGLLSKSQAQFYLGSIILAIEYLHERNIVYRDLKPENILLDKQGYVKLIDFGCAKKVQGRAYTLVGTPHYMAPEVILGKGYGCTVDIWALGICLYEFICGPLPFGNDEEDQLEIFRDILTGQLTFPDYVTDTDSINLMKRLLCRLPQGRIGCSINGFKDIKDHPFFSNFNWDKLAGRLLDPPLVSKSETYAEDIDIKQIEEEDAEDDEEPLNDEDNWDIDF
T2 sequence (P62344 whole entry): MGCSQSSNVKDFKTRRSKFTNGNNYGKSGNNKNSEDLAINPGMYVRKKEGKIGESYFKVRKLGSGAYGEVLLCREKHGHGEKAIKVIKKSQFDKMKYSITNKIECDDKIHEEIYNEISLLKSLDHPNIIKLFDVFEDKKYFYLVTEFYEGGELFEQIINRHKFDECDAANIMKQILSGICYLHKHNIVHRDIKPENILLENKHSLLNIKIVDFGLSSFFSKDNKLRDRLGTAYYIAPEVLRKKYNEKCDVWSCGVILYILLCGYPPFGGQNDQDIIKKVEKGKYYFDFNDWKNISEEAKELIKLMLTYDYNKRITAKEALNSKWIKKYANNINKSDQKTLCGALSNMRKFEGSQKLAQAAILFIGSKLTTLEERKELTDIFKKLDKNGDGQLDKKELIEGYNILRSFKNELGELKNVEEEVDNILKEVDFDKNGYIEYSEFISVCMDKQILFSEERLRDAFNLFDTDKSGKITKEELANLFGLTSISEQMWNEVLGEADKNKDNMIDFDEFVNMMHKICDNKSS

SMILES | IC50 [1] | IC50 [6] | IC50 [7] | IC50 [8] | PCT_INHIB_HEPG2 ([2]; HepG2 cells, ref ChEMBL) | PCT_IHB_3D7 ([3]; P. falciparum 3D7, ref ChEMBL) | pXC50_3D7 ([3]; P. falciparum 3D7, ref ChEMBL) | PCT_INHB_DD2 [4] | PCT_INHIB_3D7_PFLDH [5] | PCT_INHIB_HEPG2 [2, 11] | PCT_IHB_3D7 [3, 12] | pXC50_3D7 [3, 12] | PCT_INHB_DD2 [9] | PCT_INHIB_3D7_PFLDH [10]
Br.CC(=O)Nc1nc(C)c(-c2csc(Nc3ccc(Cl)cc3)n2)s1 [TCMDC-123995] | 95 nM | – | – | – | 14 | 96 | 6.589 | 93 | 0 | – | – | – | – | –
CN(C(=O)c1cc2c(-c3cncnc3)cccc2[nH]1)c1ccccc1 [TCMDC-134637] | – | 271 nM | – | – | 1 | 92 | 6.202 | 99 | 0 | – | – | – | – | –
C(=N\Nc1nccc2sc(-c3ccccc3)cc12)/c1cccnc1 [TCMDC-135190] | 278 nM | – | – | – | 0 | 97 | 6.086 | 10 | 8 | – | – | – | – | –
CS(=O)(=O)Cc1ccc(Nc2nccc(-c3c(-c4cccc(NC(=O)c5c(F)cccc5F)c4)nn4ccccc34)n2)cc1 [TCMDC-135669] | 276 nM | 20 nM | 52 nM | > 10 µM | – | – | – | – | – | 78 | 99 | 6.824 | 75 | 0
O=C(Nc1cccc(-c2nn3ccccc3c2-c2ccnc(Nc3ccc(-c4cc[nH]n4)cc3)n2)c1)c1c(F)cccc1F [TCMDC-135915] | – | 22 nM | 307 nM | > 10 µM | – | – | – | – | – | 68 | 98 | 6.7232 | 98 | 5
Cl.NCc1ccc(Nc2nccc(Nc3ccc(-c4ccccc4)cc3)n2)cc1 [TCMDC-136004] | – | 375 nM | – | – | 47 | 100 | 6.05 | 98 | 0 | – | – | – | – | –
N=C(N)c1ccc(Nc2nccc(Nc3nc(-c4ccccc4)cs3)n2)cc1.O=C(O)C(F)(F)F [TCMDC-136090] | 413 nM | – | – | – | 13 | 96 | 6.122 | 75 | 0 | – | – | – | – | –
Cl.N=C(N)c1ccc(Nc2nc(Nc3ccc(-c4ccccc4)cc3)ncc2[N+](=O)[O-])cc1 [TCMDC-136145] | 164 nM | – | – | – | 11 | 99 | 6.095 | 35 | 0 | – | – | – | – | –
O=C(Cc1ccc(Nc2nccc(Nc3cccc4[nH]ncc34)n2)cc1)Nc1ccc(C(F)(F)F)cc1 [TCMDC-136243] | 167 nM | – | – | – | 12 | 100 | 6.052 | 69 | 0 | – | – | – | – | –
Cc1ccc(S(=O)(=O)Nc2ccc(Nc3nccc(Nc4cccc5[nH]ncc45)n3)cc2)cc1 [TCMDC-136297] | 823 nM | – | – | – | 57 | 90 | 6.019 | 5 | 6 | – | – | – | – | –
Cc1cc(F)ccc1-c1nc(Nc2ccncc2)c2ccn(C)c2n1 [TCMDC-141231] | – | 40 nM | – | – | 9 | 89 | 6.027 | 8 | 5 | – | – | – | – | –

Now from value to compound, other results behind:

IC50 [1] | IC50 [6] | IC50 [7] | IC50 [8] | SMILES | PCT_INHIB_HEPG2 ([2]; HepG2 cells, ref ChEMBL) | PCT_IHB_3D7 ([3]; P. falciparum 3D7, ref ChEMBL) | pXC50_3D7 ([3]; P. falciparum 3D7, ref ChEMBL) | PCT_INHB_DD2 [4] | PCT_INHIB_3D7_PFLDH [5] | PCT_INHIB_HEPG2 [2, 11] | PCT_IHB_3D7 [3, 12] | pXC50_3D7 [3, 12] | PCT_INHB_DD2 [9] | PCT_INHIB_3D7_PFLDH [10]
602 nM | – | – | – | CN1CCC(NC(=O)c2cccc(Nc3cc(Nc4cccc(Br)c4)ncn3)c2)CC1 [TCMDC-124773] | 25 | 94 | 5.997 | 6 | 1 | – | – | – | – | –
151 nM | – | – | – | Cc1cc(Nc2nc(Nc3cccc(Cl)c3)nc3ccccc23)n[nH]1 [TCMDC-134695] | 9 | 100 | 6.542 | 95 | 0 | – | – | – | – | –
580 nM | 38 nM | 315 nM | 5.46 µM | O=C(Nc1cccc(-c2nn3ccccc3c2-c2ccnc(Nc3ccc(NCCCN4CCOCC4)c(F)c3)n2)c1)c1c(F)cccc1F [TCMDC-135921] | – | – | – | – | – | 86 | 100 | 6.586 | 97 | 0
181 nM | – | – | – | C#CCNC(=O)c1ccc(-c2ccnc(Nc3cccc(CCCN4CCOCC4)c3)n2)s1 [TCMDC-136764] | 54 | 82 | 5.998 | 45 | 0 | – | – | – | – | –
145 nM | – | – | – | Cn1c(=O)c(-c2c(Cl)cccc2Cl)cc2cnc(Nc3ccc(N4CCOCC4)cc3)nc21 [TCMDC-137156] | 64 | 98 | 6.794 | 97 | 4 | – | – | – | – | –
201 nM | – | – | – | N#Cc1cnc(Nc2ccc(Oc3ccccc3)cc2)nc1Nc1cccc(S(N)(=O)=O)c1 [TCMDC-138613] | 74 | 96 | 6.256 | 86 | 3 | – | – | – | – | –
– | 242 nM | – | – | Cc1ccc(Nc2nccc(Nc3ccc4c(c3)nc(Nc3cc(C(C)(C)C)on3)n4C)n2)cc1S(C)(=O)=O [TCMDC-141889] | 30 | 100 | 6.222 | 99 | 0 | – | – | – | – | –
